Experiments:
[1] = target: HDAC2 (Homo sapiens (Human), UniProt Q92769); test: HDAC enzyme inhibition assay (Fluor-de-Lys), HDAC2; type: biochemical; conditions: 2 hours pre-incubation
Protocol: (§1) The HDAC activity inhibition assay was performed as follows to determine the ability of a test compound to inhibit HDAC enzymatic activity. Serial dilutions of HDAC inhibitors were prepared in HDAC assay buffer (25 mM Tris/HCl, pH 8.0, 137 mM NaCl, 2.7 mM KCl, 1 mM MgCl2, pH 8) in 96-well assay plates (Fisher scientific, #07-200-309) and were pre-incubated for 2 hours at room temperature in the presence of 125 μg/ml BSA and purified HDAC1 (BPS Bioscience, San Diego, Calif., #50051), HDAC2 (BPS Bioscience, #50053), or HDAC3/NcoR2 (BPS Bioscience, #50003) at concentrations of 1.25, 1.32, and 0.167 μg/mL, respectively. Following pre-incubation, Fluor-de-Lys™ substrate (Enzo Life Sciences, Plymouth Meeting, Pa., BML-KI104-0050) was added to a final concentration of 10 μM and plates were further incubated for 30 minutes at room temperature. The enzymatic reaction was stopped by addition of Trichostatin A (Sigma-Aldrich, St Louis, Mo., #T8552, final concentration: 100 nM) and trypsin (MP Biomedicals, Solon, Ohio, #02101179) was added to reach a final concentration of 100 μg/mL. After a 15 minute incubation at room temperature, fluorescence was recorded using a Spectramax M2 fluorometer (Molecular Devices, Sunnyvale, Calif.) with excitation at 365 nm and emission at 460 nm. IC50 values were calculated by using a sigmoidal dose-response (variable slope) equation in GraphPad Prism® 5 for Windows (GraphPad Software, La Jolla, Calif.). Results for selected compounds in the HDAC activity inhibition assay are presented in Table 5 (IC50 ranges: IA>20 μM, A<1 μM, 1<B<5 μM, 5<C<10 μM, 10<D<20 μM, ND: not determined).

[2] = target: HDAC3/NcoR2 (Homo sapiens (Human), UniProt O15379); test: HDAC enzyme inhibition assay (Fluor-de-Lys), HDAC3/NcoR2; type: biochemical; conditions: HDAC3/NcoR2, 2 hours pre-incubation
Sequence of HDAC3/NcoR2 (O15379 whole entry): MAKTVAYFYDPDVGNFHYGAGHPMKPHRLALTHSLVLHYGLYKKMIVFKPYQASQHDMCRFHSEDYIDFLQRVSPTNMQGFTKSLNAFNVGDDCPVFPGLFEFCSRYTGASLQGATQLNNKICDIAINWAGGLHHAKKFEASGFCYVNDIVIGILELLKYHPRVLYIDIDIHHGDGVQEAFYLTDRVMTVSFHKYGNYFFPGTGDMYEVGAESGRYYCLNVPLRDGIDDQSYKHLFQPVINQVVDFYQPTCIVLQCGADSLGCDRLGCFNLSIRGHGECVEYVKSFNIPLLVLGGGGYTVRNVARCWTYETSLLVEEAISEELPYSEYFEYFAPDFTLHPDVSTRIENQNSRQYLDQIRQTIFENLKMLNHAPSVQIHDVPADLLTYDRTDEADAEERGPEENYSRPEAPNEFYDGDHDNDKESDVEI
Sequence of HDAC3/NcoR2 (Q9Y618 395-489 partner): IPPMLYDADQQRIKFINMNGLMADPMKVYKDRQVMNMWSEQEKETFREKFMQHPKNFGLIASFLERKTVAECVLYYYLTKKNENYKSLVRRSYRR
Protocol: as §1

[3] = Brain penetration studies; type: in vivo; conditions: C57/BL6/J, mouse; mice, s.c. 5 or 50 mg/kg or i.v. 5 mg/kg; Cmax(brain)/Cmax(plasma); read-out: BPR (brain/plasma ratio)
Protocol: Test compounds were prepared at either 0.5 mg/ml or 5 mg/ml in 30% hydroxypropyl-β-cyclodextrin, 100 mM sodium acetate pH 5.5, 5% DMSO. C57/BL6/J mice were dosed s.c. at 5 mg/kg or 50 mg/kg, or i.v. at 5 mg/kg. Animals were euthanized at pre-dose, 5, 15, 30 min, 1, 2 and 4 hours post-dose and plasma and brain obtained. Three animals per dose per time points were used. The levels of compound in the plasma and brain were determined by standard LC/MS/MS methods. Brain/plasma ratio (BPR) was calculated as the ratio of the Cmax(brain)/Cmax(plasma). The results are shown in Table 5, where IA corresponds to a BPR less than 0.1, D is between 0.1 and 0.2, C is 0.2 to 0.5, B comprises 0.5 to 1 and A is greater than 1.

[4] = tested on: GM 15850 (lymphoblastoid cells line) cells; test: In-cell deacetylase inhibition assay (DAC assay); type: cell-based; conditions: Homo sapiens, GM15850; GM 15850 cells, 4 h incubation
Protocol: GM 15850 (lymphoblastoid cells line) cells were seeded in 96-well plates at an appropriate density (100,000 cells/well) in 90 μL, RPMI1640 medium containing 10% v/v fetal bovine serum (FBS), 1% v/v penicillin/streptomycin, and 1% v/v L-glutamine. Compound dilutions were made in 100% DMSO followed by parallel dilution in media with 2% DMSO. 10 μl of the compound dilutions were added to the cells to achieve the desired concentrations. The final concentration of DMSO in each well was 0.2%. The cells were incubated for 4 h at 37° C. with 5% CO2. After incubation, the cells were centrifuged down and the supernatant was removed. The cell pellets were washed with 100 μL, phosphate-buffered saline (PBS) and then lysed with 45 μL, lysis buffer (HDAC assay buffer at pH 8.0 (25 mM Tris/HCl, 137 mM NaCl, 2.7 mM KCl, 1 mM MgCl2)+1% v/v Igepal CA-630). To initiate the reaction, the HDAC substrate KI-104 (Enzo Life Sciences, Farmingdale, N.Y.) was added to a final concentration of 50 μM. The reaction was stopped after 30 min incubation by addition of 50 μL, developer (6 mg/mL trypsin in HDAC assay buffer). The reaction was allowed to develop for 30 min at room temperature and the fluorescence signal was detected using a fluorometer (Spectramax M2, Molecular Devices, Sunnyvale, Calif.) with excitation and emission wavelengths of 360 nm and 470 nm respectively. The data was fitted to a sigmoidal dose response equation with variable slope in GraphPad Prism 5.0 (GraphPad Software, La Jolla, Calif.) to determine IC50. Bottom and top of the curve were fixed to the average fluorescence response of control wells with no cells and cells but no compound respectively. IC50's are reported in Table 5, where A stands for IC50 less than 1 μM, B between 1 and 5 μM, C from 5 to 10 μM, D from 10 to 20 μM, and IA for IC50 above 20 μM.

[5] = Acid stability determination; type: physicochemical; conditions: 0.01 M HCl, 50° C., 100 μM
Protocol: A 100 μM solution of test compound was prepared by dilution of a 10 mM DMSO stock solution in a 0.01 M solution of HCl in deionized water. Immediately after mixing, an aliquot (100 μL) was sampled and analyzed by HPLC/UV. The area under the compound peak was determined and used as the time zero reference point. The remainder of the acid sample was incubated at 50° C. and samples were taken after 2, 4, and 24 hours of incubation. On a few occasions, samples were taken at 30 rather than 24 hours. These were analyzed by the same HPLC/UV method and the area of the peak corresponding to the test compound was measured. Percent remaining at a given time point was then calculated as the ratio of the area under the peak after incubation to that at time zero times 100. In those cases where a 30 hour time point was recorded, the percent remaining at 24 hours was obtained by interpolation of the percent remaining versus time curve assuming a unimolecular process, i.e. a monoexponential decay. Percent remaining after 24 hours incubation are presented in Table 5 below, where A corresponds to more than 60%, B is between 40 and 60%, C covers 20 to 40% and D means less than 20%.

Sequence of HDAC2 (Q92769 whole entry): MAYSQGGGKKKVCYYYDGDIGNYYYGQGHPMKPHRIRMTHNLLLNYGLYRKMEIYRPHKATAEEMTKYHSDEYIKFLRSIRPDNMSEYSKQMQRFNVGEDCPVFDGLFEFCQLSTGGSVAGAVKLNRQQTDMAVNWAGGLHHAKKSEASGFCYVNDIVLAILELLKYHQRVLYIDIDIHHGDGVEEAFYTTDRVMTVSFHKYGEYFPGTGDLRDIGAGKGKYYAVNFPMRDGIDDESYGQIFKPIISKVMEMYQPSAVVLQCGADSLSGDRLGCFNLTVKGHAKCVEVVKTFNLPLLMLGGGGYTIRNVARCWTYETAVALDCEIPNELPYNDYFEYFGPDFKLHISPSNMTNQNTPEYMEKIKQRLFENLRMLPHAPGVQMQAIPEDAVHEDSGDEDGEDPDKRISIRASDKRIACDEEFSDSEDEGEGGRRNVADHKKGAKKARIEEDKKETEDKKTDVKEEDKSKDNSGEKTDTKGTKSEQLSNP

| SMILES | IC50 [1] | IC50 [2] | Kp [3] | IC50 [4] | Acid Stability % Left 24 hr [5] |
| --- | --- | --- | --- | --- | --- |
| Nc1ccccc1NC(=O)c1ccc2c(cnn2Cc2cccnc2)c1 [Compound A1] | < 1000 nM | < 1000 nM | 0.2 to 0.5 | < 1000 nM |  |
| Nc1ccccc1NC(=O)c1ccc2c(cnn2Cc2ccccc2)c1 [Compound A2] | < 1000 nM | < 1000 nM | > 1 | < 1000 nM | B (B is between 40 and 60%) |
| Cn1cc(Cn2ncc3cc(C(=O)Nc4ccccc4N)ccc32)cn1 [Compound A3] | < 1000 nM | < 1000 nM | 0.2 to 0.5 | < 1000 nM |  |
| Nc1ccccc1NC(=O)c1ccc2c(cnn2Cc2cncc(F)c2)c1 [Compound A4, N-(2-aminophenyl)-1-((5-fluoropyridin-3-yl)methyl)-1H-indazole-5-carboxamide] |  | < 1000 nM | 0.2 to 0.5 | < 1000 nM |  |
| Cc1ccc(Cn2ncc3cc(C(=O)Nc4ccccc4N)ccc32)c(C)n1 [Compound A5] | < 1000 nM | < 1000 nM | 0.2 to 0.5 | < 1000 nM |  |
| Nc1cc(F)ccc1NC(=O)c1ccc2c(cnn2Cc2cccnc2)c1 [Compound A6] | < 1000 nM | < 1000 nM |  | 1000 to 5000 nM | A (A corresponds to more than 60%) |
| Nc1cc(F)ccc1NC(=O)c1ccc2c(cnn2Cc2cncc(F)c2)c1 [Compound A7] | < 1000 nM | < 1000 nM | 0.2 to 0.5 | 1000 to 5000 nM | B (B is between 40 and 60%) |
| Cc1ccc(Cn2ncc3cc(C(=O)Nc4ccc(F)cc4N)ccc32)c(C)n1 [Compound A8] | 1000 to 5000 nM | < 1000 nM |  | 1000 to 5000 nM | A (A corresponds to more than 60%) |

Now from value to compound:

| IC50 [1] | IC50 [2] | Kp [3] | IC50 [4] | Acid Stability % Left 24 hr [5] | SMILES |
| --- | --- | --- | --- | --- | --- |
| < 1000 nM | < 1000 nM | > 1 |  | A (A corresponds to more than 60%) | Nc1ccccc1NC(=O)c1ccc2c(cnn2Cc2ccc(F)c(F)c2)c1 [Compound A9] |
| 5000 to 10000 nM | < 1000 nM | 0.5 to 1 | > 20000 nM | B (B is between 40 and 60%) | Nc1cc(F)ccc1NC(=O)c1ccc2c(cnn2CC2CC2)c1 [Compound A12] |
| < 1000 nM | < 1000 nM | < 0.1 | < 1000 nM |  | Nc1ccccc1NC(=O)c1ccc2nn(Cc3cccnc3)cc2c1 [Compound A13] |
|  | < 1000 nM | 0.2 to 0.5 | < 1000 nM |  | Nc1ccccc1NC(=O)c1ccc2nn(Cc3cncc(F)c3)cc2c1 [Compound A14, N-(2-aminophenyl)-2-((5-fluoropyridin-3-yl)methyl)-2H-indazole-5-carboxamide] |
| 1000 to 5000 nM | < 1000 nM | < 0.1 | < 1000 nM |  | Cc1ccc(Cn2cc3cc(C(=O)Nc4ccccc4N)ccc3n2)c(C)n1 [Compound A15] |
